Patent EP2123249A1, “OIL SOLUTION, AND LUBRICANT, MOISTURE-RETAINING AGENT AND PREPARATION FOR EXTERNAL APPLICATION CONTAINING THE SAME” (priority 2007, dated 2008)
Counter-ions that a name gives are not always drawn.

How the values were obtained:
[1] = Oil solubility evaluation in KAK99 (isononyl isononanoate)
[2] = Feeling of use, graded by viscosity; assay type: physicochemical; details: class by viscosity at 25°C
[3] = Water solubility evaluation; assay type: physicochemical; details: in water
[4] = Viscosity, Brookfield viscometer DV-II+ (Spindle No. 2, 12 rpm, 25°C); assay type: physicochemical
Method: The viscosity of the oil agent of the present invention is, when used in external preparations such as moisturizers and cosmetic materials, preferably 5-200 (mPa·s, 25°C), and more preferably 8-100 (mPa·s, 25°C) . When the viscosity is within the above range, good feeling of use without stickiness can be obtained upon application to skin, etc. In addition, when the oil agent is used in lubricating agents, the viscosity is preferably 50-200 (mPa·s, 25°C) , and more preferably 60-180 (mPa·s, 25°C). When the viscosity is within this range, appropriate lubricating property and workability can be obtained. In this specification, "viscosity" refers to a value of viscosity measured using a Brookfield viscometer DV-II+ (Spindle No. 2, 12 rpm, 25°C).
In these examples, viscosity was measured using a Brookfield viscometer DV-II+ (Spindle No. 2, 12 rpm, 25°C).

Row | Structure (SMILES) | Oil solubility [1] | Feeling of use [2] | Viscosity [4] [mPa·s] | Water solubility [3]
1 | CCOCCOCCOC(=O)CCC(=O)OCCOCCOCC [Example 1, dicarbitol succinate] | – | light | 12.5 | –
2 | CCOCCOC(=O)CCC(=O)OCCOCC [Example 6, di(monoethylene glycol monoethyl ether) succinate] | – | light | 10.0 | △ (Dissolved in water up to 5 % by mass)
3 | CCOCCOCCOC(=O)CC(C)CC(C)(C)C (stereo not drawn) [Comparative example 1, carbitol isononanoate, reference compound] | – | light | 5 | –

The next lines start with results.

Row | Oil solubility [1] | Feeling of use [2] | Viscosity [4] [mPa·s] | Structure (SMILES) | Water solubility [3]
4 | △ (Dissolved in KAK99 up to 5 % by mass) | slightly light | 45 | CCOCCOCCOC(=O)CC(O)C(=O)OCCOCCOCC (stereo not drawn) [Example 2, dicarbitol malate] | ○ (Dissolved in water up to 10 % by mass)
5 | △ (Dissolved in KAK99 up to 5 % by mass) | slightly light | 32.5 | CCOCCOCCOCCOC(=O)CCC(=O)OCCOCCOCCOCC [Example 5, di(triethylene glycol monoethyl ether) succinate] | –
6 | – | light | 20 | CCOCCOCCOC(=O)CCCCC(=O)OCCOCCOCC [Example 3, dicarbitol adipate] | –
7 | – | slightly heavy | 207 | CCOCCOCCOC(=O)C(O)C(O)C(=O)OCCOCCOCC (stereo not drawn) [Example 4, dicarbitol tartrate] | –
